18 compounds from patent US10975068B2, “6-aminopyridin-3-yl thiazoles as modulators of RORγT” (Janssen Pharmaceutica NV, priority 2016, dated 2021) can be followed below.

Read-outs that look alike come from different tables or passages of the source.

For one experiment, the target named is full-length human RORγt (Homo sapiens (Human), UniProt P51449). The experiment in a line: RORγt (full-length human) reporter assay, Conditions B or C. It is filed as cell-based. The settings on record: for RORγt (FL) Reporter Assay B or C, % inhibition (value marked *): marked *: footnote not given; for inhibition at 3 µM: at 3 μM compound concentration, read-out: RORγt (FL) Reporter Assay B or C, % inhibition. The essentials:
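Readout is dual luciferase: firefly (GAL4-driven) normalized to DMSO-only and saturating-reference controls, then to CMV-Renilla. Full-length human RORγt fused to GAL4-DBD was transiently expressed in HEK293T; compound exposure ran overnight (16-20 h) starting 4-6 h after transfection, final FBS 1.3%, DMSO 0.1%.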
Background: A reporter such as luciferase makes a cellular process visible.

For experiment [1], the target named is human RORγt ligand binding domain (RORγt LBD) (Homo sapiens (Human), UniProt P51449). The experiment in a line: RORγt ThermoFluor® assay (thermal shift binding). The settings on record: read-out: ThermoFluor® Assay, Kd. The essentials: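 Binding was inferred from thermal stabilisation (ΔTm) of the E. coli-expressed RORγt LBD (0.065 mg/mL), monitored by 1,8-ANS (60 μM) emission at 500 nm during a 1 °C/min ramp. Buffer was Hepes 100 mM pH 7.0 with NaCl, GSH and Tween-20.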
Sequence of human RORγt ligand binding domain (RORγt LBD) (P51449 other isoform, or with tags, fused parts or gaps): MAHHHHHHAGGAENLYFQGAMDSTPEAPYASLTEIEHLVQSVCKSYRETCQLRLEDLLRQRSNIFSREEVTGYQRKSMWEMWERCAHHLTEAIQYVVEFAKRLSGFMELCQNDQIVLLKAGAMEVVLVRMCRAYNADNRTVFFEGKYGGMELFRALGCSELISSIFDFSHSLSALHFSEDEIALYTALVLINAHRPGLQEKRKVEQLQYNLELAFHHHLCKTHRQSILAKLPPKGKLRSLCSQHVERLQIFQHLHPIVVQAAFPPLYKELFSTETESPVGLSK
A general note: Differential scanning fluorimetry follows unfolding on heating by fluorescence.

The mark [2] stands for this setting: Conditions B or C, read-out: RORγt (FL) Reporter Assay B or C, IC50.
Setting [3] is: read-out: RORγt (FL) Reporter Assay B or C, IC50.

Sequence of full-length human RORγt (P51449 other isoform, or with tags, fused parts or gaps): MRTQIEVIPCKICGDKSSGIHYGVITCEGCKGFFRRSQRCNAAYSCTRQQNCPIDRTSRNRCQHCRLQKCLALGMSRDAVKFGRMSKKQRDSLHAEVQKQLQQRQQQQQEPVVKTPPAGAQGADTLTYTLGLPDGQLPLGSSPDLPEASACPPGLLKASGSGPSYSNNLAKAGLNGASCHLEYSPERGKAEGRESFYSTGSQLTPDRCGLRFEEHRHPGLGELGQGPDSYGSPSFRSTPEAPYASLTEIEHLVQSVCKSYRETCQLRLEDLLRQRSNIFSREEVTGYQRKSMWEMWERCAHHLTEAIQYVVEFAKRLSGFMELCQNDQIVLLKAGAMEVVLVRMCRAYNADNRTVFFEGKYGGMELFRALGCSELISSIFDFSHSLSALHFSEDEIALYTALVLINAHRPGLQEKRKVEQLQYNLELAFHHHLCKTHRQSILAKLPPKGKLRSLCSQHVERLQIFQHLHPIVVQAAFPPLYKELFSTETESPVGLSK

What is called IC50 is the concentration needed to halve the response being measured. For orientation: Kd means the free concentration of one partner at which half of the binding sites on the other are occupied at equilibrium, for simple one-to-one binding. For `C[C@H]1CCCN1C(=O)c1nc(C(=O)NCC(C)(C)O)sc1-c1cnc(NC2(C(F)(F)F)CCC2)cc1C(F)(F)F` [Example 104, (S)—N-(2-Hydroxy-2-methylpropyl)-4-(2-methylpyrrolidine-1-carbonyl)-5-(4-(trifluoromethyl)-6-((1-(trifluoromethyl)cyclobutyl)amino)pyridin-3-yl)thiazole-2-carboxamide], the “RORγt (FL) Reporter Assay B or C, % inhibition (value marked *)” value (shortened to “RORγt … % inhibition (value marked *)”) at full-length human RORγt (Conditions B or C) was 110* %. In addition, the IC50 on full-length human RORγt (setting [2]) was determined as 0.025 µM. Further, the Kd in experiment [1] came out at 0.64 nM.

As for `[2H]C([2H])(NC(=O)c1nc(C(=O)N2CCC[C@@H]2C)c(-c2cnc(NC(C)(C)C)cc2C(F)(F)F)s1)C(C)(C)O` [Example 181, (S)-5-(6-(tert-Butylamino)-4-(trifluoromethyl)pyridine-3-yl)-N-(2-hydroxy-2-methylpropyl-1,1-d2)-4-(2-methylpyrrolidine-1-carbonyl)thiazole-2-carboxamide], at full-length human RORγt (Conditions B or C), the “RORγt … % inhibition (value marked *)” value is on record as 112* %. The 50% inhibitory concentration (IC50) at full-length human RORγt (setting [2]) amounted to 0.0085 µM. Further, the dissociation constant Kd in experiment [1] was 1.1 nM.

One may read the inhibition as the relative decrease from the control value, in per cent. As for `O=C(N[C@H]1CCC[C@@H]1O)c1nc(C(=O)N2C3CCC2CC3)c(-c2cnc(N[C@@H](C3CC3)C(F)(F)F)cc2C(F)F)s1` [Example 451, 4-(7-Azabicyclo[2.2.1]heptane-7-carbonyl)-5-[6-[[(1S)-1-cyclopropyl-2,2,2-trifluoro-ethyl]amino]-4-(difluoromethyl)-3-pyridyl]-N-[(1S,2S)-2-hydroxycyclopentyl]thiazole-2-carboxamide], the inhibition at 3 µM at full-length human RORγt was found to be 99%. The IC50 at full-length human RORγt (setting [3]) was found to be 0.29 µM. Moreover, in experiment [1], the Kd is 0.29 nM.

Regarding `C[C@H]1CCCN1C(=O)c1nc(C(=O)NC[C@H](O)C(F)(F)F)sc1-c1cnc(NC(C)(C)C)cc1C(F)(F)F` (relative stereo) [Example 353, 5-(6-(tert-Butylamino)-4-(trifluoromethyl)pyridin-3-yl)-4-((S)-2-methylpyrrolidine-1-carbonyl)-N—((S*)-3,3,3-trifluoro-2-hydroxypropyl)thiazole-2-carboxamide], the inhibition at 3 µM at full-length human RORγt stood at 95%. Moreover, the IC50 on full-length human RORγt (setting [3]) came out at 0.02 µM. In addition, in experiment [1], the Kd amounted to 1.6 nM.

Take `C[C@H]1CCCCN1C(=O)c1nc(C(=O)NCC(C)(C)O)sc1-c1cnc(N[C@H]2CCCCC2(F)F)cc1C(F)(F)F` (relative stereo) [Example 32, 5-(6-(((S*)-2,2-Difluorocyclohexyl)amino)-4-(trifluoromethyl)pyridin-3-yl)-N-(2-hydroxy-2-methylpropyl)-4-((S)-2-methylpiperidine-1-carbonyl)thiazole-2-carboxamide]: the IC50 at full-length human RORγt (setting [2]) came to 0.0022 µM. For the same compound, the inhibition at 6 µM on full-length human RORγt (read-out: RORγt (FL) Reporter Assay B or C, % inhibition @ 6 μM, Conditions B or C, @ 6 μM) turned out to be 109%. For the same compound, the dissociation constant Kd in experiment [1] stood at 0.26 nM.

In the case of `CC[C@H](Nc1cc(C(F)F)c(-c2sc(C(=O)NC3CCOCC3)nc2C(=O)N2CC(F)(F)C[C@@H]2C)cn1)C(F)(F)F` [Example 422, 4-[(2S)-4,4-Difluoro-2-methyl-pyrrolidine-1-carbonyl]-5-[4-(difluoromethyl)-6-[[(1S)-1-(trifluoromethyl)propyl]amino]-3-pyridyl]-N-tetrahydropyran-4-yl-thiazole-2-carboxamide], the inhibition at 3 µM at full-length human RORγt amounted to 101%. Further, at full-length human RORγt (setting [3]), the IC50 amounted to 0.023 µM. In addition, the Kd in experiment [1] turned out to be 0.62 nM.

`C[C@H]1CC(F)(F)CN1C(=O)c1nc(C(=O)N[C@H]2C[C@H](O)C2)sc1-c1cnc(NC2(C)CCC2)cc1C(F)F` [Example 327, 4-((S)-4,4-Difluoro-2-methylpyrrolidine-1-carbonyl)-5-(4-(difluoromethyl)-6-((1-methylcyclobutyl)amino)pyridin-3-yl)-N-((1r,3S)-3-hydroxycyclobutyl)thiazole-2-carboxamide]: the inhibition at 3 µM at full-length human RORγt was found to be 93%. Moreover, the 50% inhibitory concentration (IC50) on full-length human RORγt (setting [3]) was determined as 0.011 µM. The dissociation constant Kd in experiment [1] was found to be 2 nM.

Consider `CC[C@H](Nc1cc(C(F)(F)F)c(-c2sc(C(=O)N[C@@H]3COC[C@H]3O)nc2C(=O)N2C3CCC2CC3)cn1)C(F)(F)F` [Example 155], for which the “RORγt … % inhibition (value marked *)” value at full-length human RORγt (Conditions B or C) was 103* %. For the same compound, the IC50 against full-length human RORγt (RORγt (FL) Reporter Assay B or C, IC50 (μM), Conditions B or C) amounted to 0.0058 µM. Also, the dissociation constant Kd in experiment [1] stood at 1.1 nM.

As for `CC[C@@H](CO)NC(=O)c1nc(C(=O)N2CCC[C@@H]2C)c(-c2cnc(N[C@@H](C)C(F)(F)F)cc2C(F)F)s1` [Example 407, 5-[4-(Difluoromethyl)-6-[[(1S)-2,2,2-trifluoro-1-methyl-ethyl]amino]-3-pyridyl]-N-[(1S)-1-(hydroxymethyl)propyl]-4-[(2S)-2-methylpyrrolidine-1-carbonyl]thiazole-2-carboxamide], the inhibition at 3 µM at full-length human RORγt was 100%. At full-length human RORγt (setting [3]), the IC50 is 0.12 µM. The equilibrium dissociation constant (Kd) in experiment [1] was 15 nM.

Turning to `C[C@H]1CC(F)(F)CN1C(=O)c1nc(C(=O)NCC(C)(C)O)sc1-c1cnc(NCC(C)(C)C(F)(F)F)cc1C(F)(F)F` [Example 121, (S)-4-(4,4-Difluoro-2-methylpyrrolidine-1-carbonyl)-N-(2-hydroxy-2-methylpropyl)-5-(6-((3,3,3-trifluoro-2,2-dimethylpropyl)amino)-4-(trifluoromethyl)pyridin-3-yl)thiazole-2-carboxamide], the “RORγt … % inhibition (value marked *)” value on full-length human RORγt (Conditions B or C) was 104* %. On full-length human RORγt (setting [2]), the IC50 came out at 0.025 µM. Also, the Kd in experiment [1] is 0.65 nM.

`C[C@H](NC(=O)c1nc(C(=O)N2CCC[C@@H]2C)c(-c2cnc(N[C@@H](C3CC3)C(F)(F)F)cc2C(F)F)s1)C(C)(C)O` [Example 312, 5-(6-(((S)-1-Cyclopropyl-2,2,2-trifluoroethyl)amino)-4-(difluoromethyl)pyridin-3-yl)-N—((S)-3-hydroxy-3-methylbutan-2-yl)-4-((S)-2-methylpyrrolidine-1-carbonyl)thiazole-2-carboxamide]: on full-length human RORγt, the inhibition at 3 µM amounted to 106%. For the same compound, the IC50 on full-length human RORγt (setting [3]) was found to be 0.027 µM. Also, the equilibrium dissociation constant (Kd) in experiment [1] turned out to be 2.2 nM.

For `C[C@H]1CCCN1C(=O)c1nc(C(=O)N2CC3(COC3)C2)sc1-c1cnc(NC(C)(C)C)cc1C(F)(F)F` [Example 368, [5-[6-(tert-Butylamino)-4-(trifluoromethyl)-3-pyridyl]-2-(6-oxa-2-azaspiro[3.3]heptane-2-carbonyl)thiazol-4-yl]-[(2S)-2-methylpyrrolidin-1-yl]methanone], the inhibition at 3 µM on full-length human RORγt was found to be 110%. On full-length human RORγt (setting [3]), the IC50 is 0.0075 µM. The equilibrium dissociation constant (Kd) in experiment [1] is 1.7 nM.

Consider `CCC(C)(C)Nc1cc(C(F)(F)F)c(-c2sc(C(=O)NCC(C)(C)O)nc2C(=O)N2CCC[C@@H]2C)cn1` [Example 109, (S)—N-(2-Hydroxy-2-methylpropyl)-4-(2-methylpyrrolidine-1-carbonyl)-5-(6-(tert-pentylamino)-4-(trifluoromethyl)pyridin-3-yl)thiazole-2-carboxamide], for which the “RORγt … % inhibition (value marked *)” value on full-length human RORγt (Conditions B or C) is 124* %. Besides, on full-length human RORγt (setting [2]), the IC50 turned out to be 0.018 µM. Also, in experiment [1], the Kd was determined as 0.53 nM.

For `C[C@H]1CC(F)(F)CN1C(=O)c1nc(C(=O)NCC(C)(C)O)sc1-c1cnc(NCC(C)(C)C)cc1C(F)(F)F` [Example 85, (S)-4-(4,4-Difluoro-2-methylpyrrolidine-1-carbonyl)-N-(2-hydroxy-2-methylpropyl)-5-(6-(neopentylamino)-4-(trifluoromethyl)pyridin-3-yl)thiazole-2-carboxamide], the “RORγt (FL) Reporter Assay B or C, % inhibition (value marked ***)” value at full-length human RORγt (Conditions B or C, marked ***: footnote not given) is on record as 128*** %. Besides, the half-inhibitory concentration (IC50) at full-length human RORγt (setting [2]) is 0.027 µM. Besides, in experiment [1], the Kd is 0.53 nM.

In the case of `C[C@H](Nc1cc(C(F)F)c(-c2sc(C(=O)N[C@@H]3CC[C@@H]3O)nc2C(=O)N2CCC[C@@H]2C)cn1)C(F)(F)F` (relative stereo) [Example 391, 5-(4-(Difluoromethyl)-6-(((S)-1,1,1-trifluoropropan-2-yl)amino)pyridin-3-yl)-N-((1R*,2S*)-2-hydroxycyclobutyl)-4-((S)-2-methylpyrrolidine-1-carbonyl)thiazole-2-carboxamide], the inhibition at 3 µM at full-length human RORγt is 106%. For the same compound, the IC50 on full-length human RORγt (setting [3]) was 0.035 µM. The dissociation constant Kd in experiment [1] turned out to be 4.2 nM.

As to `CC[C@@H](Nc1cc(C(F)(F)F)c(-c2sc(C(=O)NCC(C)(C)O)nc2C(=O)N2CCC[C@@H]2C)cn1)C(F)(F)F` [Example 282, N-(2-Hydroxy-2-methyl-propyl)-4-[(2S)-2-methylpyrrolidine-1-carbonyl]-5-[4-(trifluoromethyl)-6-[[(1R)-1-(trifluoromethyl)propyl]amino]-3-pyridyl]thiazole-2-carboxamide], the inhibition at 3 µM at full-length human RORγt came out at 109%. Moreover, on full-length human RORγt (setting [3]), the 50% inhibitory concentration (IC50) was 0.019 µM. In addition, the Kd in experiment [1] was 1.4 nM.

Consider `CC[C@H](Nc1cc(C(F)F)c(-c2sc(C(=O)N[C@@H]3CCC[C@H]3O)nc2C(=O)N2CC(F)(F)C[C@@H]2C)cn1)C(F)(F)F` [Example 425, 4-[(2S)-4,4-Difluoro-2-methyl-pyrrolidine-1-carbonyl]-5-[4-(difluoromethyl)-6-[[(1S)-1-(trifluoromethyl)propyl]amino]-3-pyridyl]-N-[(1R,2R)-2-hydroxycyclopentyl]thiazole-2-carboxamide], for which the inhibition at 3 µM on full-length human RORγt stood at 103%. For the same compound, the IC50 on full-length human RORγt (setting [3]) turned out to be 0.05 µM. Also, the dissociation constant (Kd) in experiment [1] worked out at 0.18 nM.

For the compound `C[C@H]1CCCN1C(=O)c1nc(C(=O)NC2(CO)CCC2)sc1-c1cnc(NC(C)(C)C)cc1C(F)(F)F` [Example 262, 5-[6-(tert-Butylamino)-4-(trifluoromethyl)-3-pyridyl]-N-[1-(hydroxymethyl)cyclobutyl]-4-[(2S)-2-methylpyrrolidine-1-carbonyl]thiazole-2-carboxamide], the inhibition at 3 µM at full-length human RORγt came out at 104%. At full-length human RORγt (setting [3]), the 50% inhibitory concentration (IC50) was 0.02 µM. Also, in experiment [1], the dissociation constant Kd was 1.6 nM.
